US20140364417A1, “METHOD OF TREATING ATRIAL FIBRILLATION” (Gilead Sciences, Inc., priority 2013, published 2014)
Where “and” joins values, the source holds several entries; their conditions need not be identical. Equal entries are not always repeated. Entries after “also recorded” stand apart in the source; their conditions may differ.

Experiments:
[1] = tested on: Acetylcholine Mediated AF Model in Pigs; assay: Acetylcholine mediated AF model in pigs: dominant frequency, ventricular rate, arterial blood pressure during AF; type: in vivo, pig; details: for effect on arterial blood pressure during AF: FIG. 3 and FIG. 4; for effect on dominant frequency of atrial fibrillation / effect on ventricular rate during atrial fibrillation: ivabradine 0.25 mg/kg i.v. bolus; for effect on dominant frequency of atrial fibrillation: ranolazine 2.4 mg/kg bolus + 0.135 mg/kg/min; for effect on dominant frequency of atrial fibrillation / dominant frequency of AF after drug: FIG. 8; for effect on ventricular rate during atrial fibrillation: FIG. 9; for ventricular rate during AF after drug / reduction of ventricular rate during AF: ivabradine 0.25 mg/kg; for ventricular rate during AF after drug: before drug 269.7±6.2 (ivabradine) and 227.3±14.7 (ranolazine, combination); for dominant frequency of AF after drug: series with ivabradine 0.25 mg/kg, baseline 10.3±1.4 (ivabradine) and 9.0±0.8 (ranolazine, combination); for reduction of ventricular rate during AF: alone or shortly after ranolazine
Method: (§1) Data were gathered from male Yorkshire pigs (n=16) weighing 35±2 kg (mean±SEM). The animals were preanesthetized with telazol (4.7 mg/kg, intramuscularly) and then anesthetized with alpha-chloralose (100 mg/kg, i.v., bolus followed by 40 mg/kg/h, i.v., continuous infusion). The animals were intubated and ventilation was maintained between 10-16 breaths/min with volumes between 400-500 mL. Vital signs including core body temperature, heart rate, and oxygen saturation were continuously monitored.
(§2) The right and left femoral veins were cannulated with 7Fr introducer sheaths using the Seldinger technique to insert catheters in the right atrial (RA) appendage for pacing and for positioning the intrapericardial catheter. Arterial blood pressure was continuously monitored from a femoral arterial sheath, and intravenous fluids were administered through the ear vein. The electrocardiogram (ECG) was recorded with a Prucka Cardiolab workstation (GE Medical Systems, Milwaukee, Wis.) from atrial and ventricular sites.
(§3) Ranolazine was given as a 2.4 mg/kg, i.v., bolus followed by continuous infusion of 0.135 mg/kg/min, i.v.
(§4) A nonsteerable, quadripolar electrode catheter (Bard Electrophysiology, Lowell Mass.) was placed in the right atrium (RA) via the femoral vein and a second quadripolar electrode catheter in the right ventricle via the jugular vein. A bipolar electrode was placed in the non-coronary cusp of the aorta through the left carotid artery to record the His bundle electrogram. A pigtail catheter was inserted in the left ventricle via the left femoral artery to record and calculate contractility [left ventricular dP/dt]. Transatrial access was employed to deliver acetylcholine (ACh) into the pericardial space. Specifically, a small puncture was made in the RA appendage with the stiff end of a coronary angioplasty guidewire (0.014-inch Wizdom guidewire, Cordis, Miami, Fla., USA) placed within the lumen of a soft infusion catheter (0.038-inch SOS straight-tip, open-ended angiographic guidewire, Bard Electrophysiology). This wire-within-wire system was advanced as a unit into an 8Fr multipurpose guide catheter (MP2, Boston Scientific, Boston Mass.) previously positioned in the RA appendage via a femoral vein under fluoroscopic guidance and into the pericardial space. The infusion catheter was left in the pericardial space for delivery of ACh and the inner guidewire was removed. Conformation of the infusion catheter on fluoroscopy to the curvature of the heart verified its location within the pericardial space. All of the pericardial fluid was then aspirated with the infusion catheter. Intrapericardial access is associated with a hematocrit <2%, indicating minimum trauma from the atrial puncture (Kumar et al., J Cardiovasc Electrophysiol 2009; 20:796-802). The presence of acetylcholinesterase can rapidly degrade ACh and prevent a sustained response to this neurotransmitter.
Atrial fibrillation (AF) was defined as an irregular atrial rhythm with an average cycle length <150 msec at all atrial sites, whereas atrial flutter was defined as a regular atrial rhythm with fixed cycle length >150 msec at all atrial sites. After baseline electrical testing was performed, AF initiation was attempted by decremental burst pacing at each atrial site down to loss of 1:1 capture. ACh (1 mL of 100 mM solution) along with a 1-mL saline flush was injected into the pericardial space via the transatrial infusion catheter. […] After 5 minutes of AF, the pericardial space was lavaged with saline (20 mL) via the transatrial pericardial catheter. At the end of lavage, no further pericardial fluid could be removed. Lavage was performed after 5 minutes of AF in order to minimize the mild systemic hypotension that was occasionally associated with ACh administration. The time to spontaneous termination of AF was recorded.
Dominant frequency of AF was analyzed during the 6th minute after AF initiation using the intracardiac electrograms from the right atrial appendage. […]

male Yorkshire pigs = assay: A-H, H-V, PR and QT intervals during right atrial pacing in anesthetized pigs; type: in vivo; details: for increase in PR interval: ivabradine 0.25 mg/kg, 30 min after ivabradine administration; for effect on atrial-His (A-H) interval: right atrial pacing at 180 beats/min, FIG. 6 left panel; for effect on atrial-His (A-H) interval / effect on PR interval: ivabradine 0.25 mg/kg bolus; for effect on PR interval: right atrial pacing at 180 bpm, FIG. 5 upper panel
Method: as §1, §2, §3, §4
The electrical stimulation protocol described below was performed in the control state and after the ivabradine bolus and after ranolazine administration and the combination of ranolazine and ivabradine. Burst pacing was performed after ACh injection into the pericardium and AF was invariably elicited. Ventricular rate during AF was determined by counting the R waves during the 6th minute of AF. Two episodes of AF separated by 10 min were induced to establish control levels.
A Bloom stimulator (Bloom Associates, Reading Pa.) was used to deliver constant-current rectangular stimuli for fixed-rate pacing as well as for delivering premature stimuli. To elicit AF, a burst pacing stimulation with a cycle length of 200 msec was performed. A-H, His-ventricular (H-V), PR and QT interval measurements were made during right atrial pacing at 130 and 180 beats/min.
The statistical tests were carried out with a SAS statistical package (SAS Institute, Cary, N.C.). […]

[2] = ivabradine 0.25 mg/kg i.v., ranolazine 2.4 mg/kg bolus + 0.135 mg/kg/min, pacing 130 beats/min
[3] = larger series, ivabradine 0.25 mg/kg i.v., ranolazine 2.4 mg/kg bolus + 0.135 mg/kg/min, pacing 180 beats/min, FIG. 6
[4] = pacing 130 beats/min, ranolazine 2.4 mg/kg bolus + 0.135 mg/kg/min
[5] = pacing 180 beats/min, ranolazine 2.4 mg/kg bolus + 0.135 mg/kg/min
[6] = pacing rate 180 beats/min, FIG. 2 (first series)

SMILES: COc1ccccc1OCC(O)CN1CCN(CC(=O)Nc2c(C)cccc2C)CC1 (racemic) [ranolazine, (±)-N-(2,6-dimethylphenyl)-4-[2-hydroxy-3-(2-methoxyphenoxy)-propyl]-1-piperazineacetamide]
- change in arterial blood pressure during AF versus control (Δ Control/drug) ([1]; FIG. 3): 3.36 mmHg
- effect on arterial blood pressure during AF [1]: Neither ivabradine (FIG. 4) nor ranolazine (FIG. 3) given alone improves; also recorded: no significant improvement
- effect on dominant frequency of atrial fibrillation [1]: neither drug alone was effective
- effect on ventricular rate during atrial fibrillation [1]: not reduced; also recorded: did not
- ventricular rate during AF after drug [1]: 197.1±17.4 beats/min
- dominant frequency of AF after drug [1]: 7.8±0.9 Hz
- increase in A-H interval (male Yorkshire pigs; [2]): 2.0 ± 2.6 ms
- increase in A-H interval (male Yorkshire pigs; [3]): 13.8 ± 3.9 ms
- HV interval after drug (male Yorkshire pigs; male, Yorkshire, pig, in vivo): 35 ms
- QT interval after drug (male Yorkshire pigs; male, Yorkshire, pig, in vivo): 282 ms
- increase in PR interval (male Yorkshire pigs; [4]): 5 ± 1.8 ms
- increase in PR interval (male Yorkshire pigs; [5]): 19 ± 2.8 ms
- increase in A-H interval (male Yorkshire pigs; [6]): 18 ms and 18.4 ms
- A-H interval after drug (male Yorkshire pigs; representative experiment FIG. 7, pacing 180 beats/min, before drug 100 msec, ranolazine, then ivabradine 0.25 mg/kg): 107 ms
- PR interval after drug (male Yorkshire pigs; representative experiment FIG. 7, pacing 180 beats/min, before drug 123 msec): 131 ms
- effect on atrial-His (A-H) interval (male Yorkshire pigs): did not
- effect on PR interval (male Yorkshire pigs): increased PR interval

SMILES: COc1cc2c(cc1OC)CC(=O)N(CCCN(C)C[C@H]1Cc3cc(OC)c(OC)cc31)CC2 [ivabradine, 3-{3-[{[(7S)-3,4-dimethoxybicyclo[4.2.0]octa-1,3,5-trien-7-yl]methyll}-(methyl)amino]propyl}-7,8-dimethoxy-1,3,4,5-tetrahydro-2H-3-benzapenin-2-one]
- effect on arterial blood pressure during AF [1]: Neither ivabradine (FIG. 4) nor ranolazine (FIG. 3) given alone improves; also recorded: small, not significant decrease
- effect on dominant frequency of atrial fibrillation [1]: neither drug alone was effective
- effect on ventricular rate during atrial fibrillation [1]: lowered ventricular rate
- reduction of ventricular rate during AF [1]: 9%
- reduction of ventricular rate during AF ([1]; 30 min after drug infusion): 22.5±6.0 beats/min and 22.53±6.0 beats/min
- ventricular rate during AF after drug [1]: 247.2±9.5 beats/min
- dominant frequency of AF after drug [1]: 9±0.7 Hz
- increase in A-H interval (male Yorkshire pigs; [2]): 15.5 ms
- increase in A-H interval (male Yorkshire pigs; [3]): 22.0 ± 3.5 ms
- increase in PR interval (male Yorkshire pigs; [4]): 16 ± 3.9 ms
- increase in PR interval (male Yorkshire pigs; [5]): 20 ± 3.5 ms
- increase in A-H interval (male Yorkshire pigs; [6]): 31 ms and 31.2 ms
- effect on QT interval (male Yorkshire pigs; right atrial pacing at 130 and 180 beats/min, FIG. 5 lower panel): not altered; also recorded: neither drug nor their combination altered QT interval
- effect on His-ventricular (H-V) interval (male Yorkshire pigs; right atrial pacing at 130 and 180 beats/min, FIG. 6 right panel): unchanged; also recorded: neither drug nor their combination altered His-ventricular (H-V) interval
- effect on atrial-His (A-H) interval (male Yorkshire pigs): increased atrial-His (A-H) interval
- effect on PR interval (male Yorkshire pigs): increased PR interval
